This note sets out measurements from patent US9562035B2, “Benzamide derivative useful as FASN inhibitors for the treatment of cancer” (Janssen Pharmaceutica NV, priority 2013, dated 2017).

In assay [1] the target is T1, hFASN enzyme (full length) (Homo sapiens, UniProt P49327).
T1 construct: 10 μL hFASN enzyme (full length, 300 ng, purified in house); made in house
Put plainly: Fatty Acid Synthase (FASN) Inhibition Scintillation Proximity Assay. It is filed as biochemical. To be noted: for IC50: mean where tested more than once, ~ = standard error of pIC50 larger than 0.5; for inhibition at 10 µM: read-out: FASN % Effect @1E−05M. Put shortly:
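Purified full-length human FASN (300 ng) incubated 60 min at room temperature with NADPH, [3H]-acetyl-CoA and malonyl-CoA in 100 mM KH2PO4 pH 7.5, 1 mM DTT; compound at 30 μM to 0.01 μM. [3H]-palmitate captured by SPA imaging beads; IC50 from 4-parameter fit, reported as pIC50.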
(Scintillation proximity formats need no separation of bound from free tracer.)

In assay [2] the target is T2, FASN Keto-reductase Domain (Homo sapiens, UniProt P49327).
T2 construct: 10 μL hFASN enzyme (full length, 300 ng, purified in house) and 360 μM NADPH; made in house
T2 sequence (P49327 whole entry, the tested form may be a part): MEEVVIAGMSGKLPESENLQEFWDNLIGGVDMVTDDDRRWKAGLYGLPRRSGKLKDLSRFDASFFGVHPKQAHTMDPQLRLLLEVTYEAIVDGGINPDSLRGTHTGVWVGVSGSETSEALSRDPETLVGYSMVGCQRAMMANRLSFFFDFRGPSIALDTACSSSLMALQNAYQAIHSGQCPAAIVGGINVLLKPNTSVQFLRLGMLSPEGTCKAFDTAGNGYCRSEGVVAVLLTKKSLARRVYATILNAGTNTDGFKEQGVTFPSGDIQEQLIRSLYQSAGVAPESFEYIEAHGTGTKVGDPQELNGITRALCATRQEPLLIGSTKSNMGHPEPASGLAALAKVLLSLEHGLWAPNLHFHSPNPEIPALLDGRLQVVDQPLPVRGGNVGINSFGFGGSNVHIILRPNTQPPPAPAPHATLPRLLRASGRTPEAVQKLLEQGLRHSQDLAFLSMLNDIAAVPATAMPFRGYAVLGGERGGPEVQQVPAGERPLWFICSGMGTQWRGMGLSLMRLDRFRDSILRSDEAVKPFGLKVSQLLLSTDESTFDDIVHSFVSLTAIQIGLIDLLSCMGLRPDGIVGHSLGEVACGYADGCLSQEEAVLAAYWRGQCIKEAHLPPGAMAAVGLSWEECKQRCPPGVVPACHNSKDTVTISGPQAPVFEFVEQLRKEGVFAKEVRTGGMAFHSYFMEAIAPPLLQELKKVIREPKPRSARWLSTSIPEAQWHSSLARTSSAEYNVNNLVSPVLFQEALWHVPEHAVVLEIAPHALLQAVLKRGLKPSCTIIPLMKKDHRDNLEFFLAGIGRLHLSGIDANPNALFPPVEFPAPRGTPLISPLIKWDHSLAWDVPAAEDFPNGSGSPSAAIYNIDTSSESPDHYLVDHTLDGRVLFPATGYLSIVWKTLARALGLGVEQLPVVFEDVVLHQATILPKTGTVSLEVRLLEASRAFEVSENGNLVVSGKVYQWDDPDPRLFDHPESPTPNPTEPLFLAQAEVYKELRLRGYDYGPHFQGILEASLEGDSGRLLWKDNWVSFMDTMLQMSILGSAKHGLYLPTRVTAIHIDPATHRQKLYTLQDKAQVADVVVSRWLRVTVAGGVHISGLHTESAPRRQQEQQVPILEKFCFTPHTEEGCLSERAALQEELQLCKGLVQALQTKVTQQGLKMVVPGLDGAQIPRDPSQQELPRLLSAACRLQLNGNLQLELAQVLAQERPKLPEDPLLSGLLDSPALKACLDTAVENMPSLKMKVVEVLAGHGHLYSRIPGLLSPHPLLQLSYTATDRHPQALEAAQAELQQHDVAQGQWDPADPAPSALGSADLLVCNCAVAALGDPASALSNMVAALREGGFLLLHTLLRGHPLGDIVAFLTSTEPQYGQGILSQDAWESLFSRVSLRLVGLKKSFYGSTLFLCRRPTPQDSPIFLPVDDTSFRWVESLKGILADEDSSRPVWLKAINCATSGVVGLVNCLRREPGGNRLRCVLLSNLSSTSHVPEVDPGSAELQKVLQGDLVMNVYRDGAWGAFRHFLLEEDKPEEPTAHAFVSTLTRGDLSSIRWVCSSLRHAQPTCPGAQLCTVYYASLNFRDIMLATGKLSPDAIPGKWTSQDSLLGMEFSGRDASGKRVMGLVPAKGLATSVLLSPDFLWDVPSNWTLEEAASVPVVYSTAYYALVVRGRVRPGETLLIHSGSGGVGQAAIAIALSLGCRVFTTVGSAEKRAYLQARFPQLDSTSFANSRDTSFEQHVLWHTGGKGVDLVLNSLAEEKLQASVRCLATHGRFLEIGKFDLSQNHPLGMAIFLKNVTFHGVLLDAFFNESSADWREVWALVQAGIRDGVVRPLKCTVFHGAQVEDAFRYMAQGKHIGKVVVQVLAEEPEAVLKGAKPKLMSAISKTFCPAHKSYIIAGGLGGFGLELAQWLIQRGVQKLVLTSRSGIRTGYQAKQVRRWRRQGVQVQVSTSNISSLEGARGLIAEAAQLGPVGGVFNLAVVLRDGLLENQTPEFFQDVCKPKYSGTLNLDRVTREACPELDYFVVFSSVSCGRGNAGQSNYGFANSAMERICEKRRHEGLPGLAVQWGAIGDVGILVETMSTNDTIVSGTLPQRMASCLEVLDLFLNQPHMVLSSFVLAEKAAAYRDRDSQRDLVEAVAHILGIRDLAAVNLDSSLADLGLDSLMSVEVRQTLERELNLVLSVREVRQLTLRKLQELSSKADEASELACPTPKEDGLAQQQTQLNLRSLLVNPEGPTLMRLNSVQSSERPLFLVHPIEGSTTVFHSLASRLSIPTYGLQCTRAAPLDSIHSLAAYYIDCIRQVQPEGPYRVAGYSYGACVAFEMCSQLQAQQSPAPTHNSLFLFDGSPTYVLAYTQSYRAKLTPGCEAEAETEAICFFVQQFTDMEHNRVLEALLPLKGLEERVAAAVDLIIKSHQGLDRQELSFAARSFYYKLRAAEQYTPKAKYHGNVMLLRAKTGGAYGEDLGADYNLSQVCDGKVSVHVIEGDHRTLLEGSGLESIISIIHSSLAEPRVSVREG
Description: Fatty Acid Synthase Keto-Reductase Domain (FASN KR) Inhibition. It is filed as biochemical. The note with it: mean where tested more than once; read-out: FASN K-R Domain pIC50 (converted). The gist of the method:
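Full-length human FASN (300 ng) in 100 mM KH2PO4 pH 7.5 with 360 μM NADPH and 180 mM ethyl acetoacetate (stock); A340 decrease read over 20 min at room temperature.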

T1 sequence (P49327 whole entry): as the sequence (P49327 whole entry, the tested form may be a part) above

Regarding `CNc1ccc(C(=O)N2CCC(c3ccc(-c4cnn(C)c4)cc3)CC2)cc1NC(=O)c1ccc(NC(C)C)nc1` [Compound #279, 6-(isopropylamino)-N-(5-(4-(4-(1-methyl-1H-pyrazol-4-yl)phenyl)piperidine-1-carbonyl)-2-(methylamino)phenyl)nicotinamide], in assay [1], the IC50 is 41.7 nM and the inhibition at 10 µM was found to be 98%. Besides, the IC50 in assay [2] is 93.3 nM.
For `Cc1ccc(C(=O)N2CC(c3ccc(-c4cnn(C)c4)cc3)C2)cc1NC(=O)c1ccc(N(C)C(C)C)nc1` [Compound #78, 6-(isopropyl(methyl)amino)-N-(2-methyl-5-(3-(4-(1-methyl-1H-pyrazol-4-yl)phenyl)azetidine-1-carbonyl)phenyl)nicotinamide], in that order: approximately 10.2 nM, 120% and 25.1 nM.
For `COCCNc1ccc(C(=O)N2CCC(c3ccc(-c4cnn(C)c4)cc3)CC2)cc1NC(=O)c1ccc(NC(C)C)nc1` [Compound 282, 6-(isopropylamino)-N-(2-((2-methoxyethyl)amino)-5-(4-(4-(1-methyl-1H-Pyrazol-4-yl)phenyl)piperidine-1-carbonyl)phenyl)nicotinamide], in that order: 70.8 nM, 99% and 457 nM.
On to `CC(C)N(C)c1ccc(C(=O)N2CCC(c3ccc(-c4cnn(C)c4)cc3)CC2)cc1NC(=O)c1ccc(Cl)nc1` [Compound 274, 6-chloro-N-(2-(isopropyl(methyl)amino)-5-(4-(4-(1-methyl-1H-pyrazol-4-yl)phenyl)piperidine-1-carbonyl)phenyl)nicotinamide], for which, in assay [1], the IC50 was 437 nM and the inhibition at 10 µM was 88%. In assay [2], the IC50 is approximately 2190 nM.
For `COCCN(C)c1ccc(C(=O)N2CCC(c3ccc(-c4cnn(C)c4)cc3)CC2)cc1NC(=O)c1ccc(NC(C)C)nc1` [Compound 281, 6-(isopropylamino)-N-(2((2-methoxyethyl)(methyl)amino)-5-(4-(4-(1-methyl-1H-pyrazol-4-yl)phenyl)piperidine-1-carbonyl)phenyl)nicotinamide], in that order: 457 nM, 93% and 933 nM.
For `CC(C)Nc1ccc(C(=O)Nc2cc(C(=O)N3CCC(c4ccc(-c5cnn(C)c5)cc4)CC3)ccc2N(C)C2CC2)cn1` [Compound 287, N-(2-(cyclopropyl(methyl)amino)-5-(4-(4-(1-methyl-1H-pyrazol-4-yl)phenyl)piperidine-1-carbonyl)phenyl)-6-(isopropylamino)nicotinamide], in that order: 100 nM, 98% and 204 nM.
For `CC(C)Nc1ccc(C(=O)Nc2cc(C(=O)N3CCC(c4ccc(-c5cnn(C)c5)cc4)CC3)ccc2N(C)C(C)C)cn1` [Compound 276, N-(2-(isopropyl(methyl)amino)-5-(4-(4-(1-methyl-1H-pyrazol-4-yl)phenyl)piperidine-1-carbonyl)phenyl)-6-(isopropylamino)nicotinamide], in that order: 372 nM, 93% and 479 nM.
With `CC(C)Nc1ccc(C(=O)Nc2cc(C(=O)N3CCC(c4ccc(-c5cnn(C)c5)cc4)CC3)ccc2NC(C)C)cn1` [Compound 284, 6-(isopropylamino)-N-(2-(isopropylamino)-5-(4-(4-(1-methyl-1H-pyrazol-4-yl)phenyl)piperidine-1-carbonyl)phenyl)nicotinamide], in assay [1], the IC50 was 126 nM and the inhibition at 10 µM stood at 95%. Also, the IC50 in assay [2] was 407 nM.
Take `CC(C)Nc1ccc(C(=O)Nc2cc(C(=O)N3CCC(c4ccc(-c5cnn(C)c5)cc4)CC3)ccc2NC2CC2)cn1` [Compound 283, N-(2-(cyclopropylamino)-5-(4-(4-(1-methyl-1H-pyrazol-4-yl)phenyl)piperidine-1-carbonyl)phenyl)-6-(isopropylamino)nicotinamide]: in assay [1], the IC50 is 110 nM and the inhibition at 10 µM came to 98%. Moreover, in assay [2], the IC50 was 631 nM.
For `CN(C)c1ccc(C(=O)N2CCC(c3ccc(-c4cnn(C)c4)cc3)CC2)cc1NC(=O)c1ccc(Cl)nc1` [Compound 275, 6-chloro-N-(2-(dimethylamino)-5-(4-(4-(1-methyl-1H-pyrazol-4-yl)phenyl)piperidine-1-carbonyl)phenyl)nicotinamide], in that order: 56.2 nM, 99% and 126 nM.
Turning to `COCCNc1ccc(C(=O)N2CCC(c3ccc(-c4cnn(C)c4)cc3)CC2)cc1NC(=O)C1CC1` [Compound 286, N-(2-((2-methoxyethyl)amino)-5-(4-(4-(1-methyl-1H-pyrazol-4-yl)phenyl)piperidine-1-carbonyl)phenyl)cyclopropanecarboxamide], in assay [1], the IC50 was 513 nM and the inhibition at 10 µM worked out at 91%. Besides, the IC50 in assay [2] was 851 nM.
For `CC(C)Nc1ccc(C(=O)Nc2cc(C(=O)N3CCC(c4ccc(-c5cnn(C)c5)cc4)CC3)ccc2N)cn1` [Compound 285, N-(2-amino-5-(4-(4-(1-methyl-1H-pyrazol-4-yl)phenyl)piperidine-1-carbonyl)phenyl)-6-(isopropylamino)nicotinamide], in that order: approximately 166 nM, 74% and 214 nM.
For `Cc1ccc(C(=O)N2CC(c3ccc(-c4cnn(C)c4)cc3)C2)cc1NC(=O)c1ccc(N2CCOCC2)nc1` [Compound #66, N-(2-methyl-5-(3-(4-(1-methyl-1H-pyrazol-4-yl)phenyl)azetidine-1-carbonyl)phenyl)-6-morpholinonicotinamide], in that order: 9.55 nM, 118% and 31.6 nM.
For `CN(c1ccc(C(=O)N2CCC(c3ccc(-c4cnn(C)c4)cc3)CC2)cc1NC(=O)C1CC1)C1CC1` [Compound 288, N-(2-(cyclopropyl(methyl)amino)-5-(4-(4-(1-methyl-1H-pyrazol-4-yl)phenyl)piperidine-1-carbonyl)phenyl)cyclopropanecarboxamide], in that order: 871 nM, 88% and 2510 nM.
As to `COCCN(C)c1ccc(C(=O)N2CCC(c3ccc(-c4cnn(C)c4)cc3)CC2)cc1NC(=O)C1CC1` [Compound 278, N-(2-((2-methoxyethyl)(methyl)amino)-5-(4-(4-(1-methyl-1H-pyrazol-4-yl)phenyl)piperidine-1-carbonyl)phenyl)cyclopropanecarboxamide], in assay [1], the IC50 was 813 nM and the inhibition at 10 µM amounted to 85%. Moreover, the IC50 in assay [2] is 1100 nM.
For `CC(C)Nc1ccc(C(=O)Nc2cc(C(=O)N3CCC(c4ccc(-c5cnn(C)c5)cc4)CC3)ccc2N(C)C)cn1` [Compound 280, N-(2-(dimethylamino)-5-(4-(4-(1-methyl-1H-pyrazol-4-yl)phenyl)piperidine-1-carbonyl)phenyl)-6-(isopropylamino)nicotinamide], in that order: 70.8 nM, 99% and 148 nM.
